The test system of assay [1] is T1, cN-II (Human cytosolic 5'-Nucleotidase).
T1 construct: purchased NovoCIB SAS
Put plainly: Enzyme activity of purified cytosolic cN-II (AMP-Glo assay). Type of assay: biochemical. The following applies: cN-II 0.6 mU/Rx, 10μM AMP, 37°C for 30 min. Here is the method: • 2 Determination of enzyme activity of purified cytosolic cN-II. Activity of purified cN-II (Human cytosolic 5'-Nucleotidase) was determined using 25μl reaction buffer (50mM HEPES, pH 7.0, 100mM KCl, 20mM MgCl2, 5mM DTT, 2.5mM dATP, and 0.1mg/ml BSA) containing enzyme and AMP substrate at 10μM (96-well format). Reaction continued at 37°C for 60 minutes or for a certain time period and terminated by the addition of equal volume (25μl) of AMP-Glo™ Reagent I. Reactions were mixed well and incubated for additional 30 min at 23°C. This was followed by the addition of 50 μl of AMP Detection Solution (10μl of AMP-Glo™ Reagent II per ml of Kinase-Glo® One Solution) and incubated for additional 60 min at 23°C before reading luminescence. • 3 Determination of enzyme activity of purified CD39. Activity of CD39 was determined using reaction buffer that contains 25mM Tris, pH 7.5, 5mM CaCl2, and 0.1mg/ml BSA), with 1μM to 5μM ATP or ADP as substrate, respectively. When ATP is used as a substrate, an equal volume of Kinase-Glo® One Solution was added to CD39 reactions and incubated for 15 min before reading luminescence using a luminometer. […] Reactions were mixed well and incubated for 60min before reading luminescence using luminometer. […]

Assay [2] has as its target T2, membrane-associated CD73 of MDA-MB-231 cells (Homo sapiens, UniProt P21589).
T2 construct: cell-based membrane-associated CD73 from MDA-MB-231 following AMP-Glo cell-based assay; endogenous in cells; host or cells: MDA-MB-231
T2 sequence (P21589 27-574): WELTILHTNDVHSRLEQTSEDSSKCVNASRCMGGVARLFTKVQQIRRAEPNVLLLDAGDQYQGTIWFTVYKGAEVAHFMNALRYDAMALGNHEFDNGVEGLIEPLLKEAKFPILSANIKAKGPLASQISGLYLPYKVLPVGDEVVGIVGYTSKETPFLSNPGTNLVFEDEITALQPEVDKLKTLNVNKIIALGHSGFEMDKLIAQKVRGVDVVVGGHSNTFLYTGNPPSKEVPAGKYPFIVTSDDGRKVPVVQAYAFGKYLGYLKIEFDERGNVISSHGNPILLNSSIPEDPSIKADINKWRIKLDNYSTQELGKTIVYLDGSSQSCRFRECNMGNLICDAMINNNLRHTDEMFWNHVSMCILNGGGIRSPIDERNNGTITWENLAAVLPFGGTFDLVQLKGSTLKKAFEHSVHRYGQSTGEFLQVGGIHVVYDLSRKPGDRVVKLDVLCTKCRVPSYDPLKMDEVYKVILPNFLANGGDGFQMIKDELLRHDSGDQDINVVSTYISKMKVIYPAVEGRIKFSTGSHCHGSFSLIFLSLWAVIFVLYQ
Briefly: Cell-based membrane-associated CD73 activity (AMP-Glo cell-based assay). The protocol: • Adherent Cells preparation and assay protocol. Cells grown in 75cm^2 flasks were trypsinized and counted, and were diluted with full medium, and plated to a tissue culture grade solid white or clear bottom plate, at cell density of 25K cells in full medium (10% FBS and 1% Pen/Strep) per well, and kept overnight at 37°C in a 5% CO2 incubator. Fresh medium was added an hour before use by pipetting out ¾ volume of overnight medium from each well and replaced with a ¾ volume of fresh full growing medium. Cells were washed twice with HBSS by taking out whole medium from each well and replaced with fresh 100μl of HBSS to each well. […]
For CD73 activity using AMP as substrate, 25μl aliquots were withdrawn from each well at the desired time point and added to assay solid white plate (Corning Costar 3912 or equivalent) followed by the addition of 25μl of AMP-Glo™ Reagent I to each well, mixed well and incubated for 30min at 23°C.This was followed by the addition of 50μl per well of AMP-Glo™ Detection Solution (1ml of Kinase-Glo™ One Solution mixed with 10μl of AMP-Glo™ Reagent II), see AMP-Glo™ TM#384. This was followed by incubating the mixture for 60min at 23°C, before reading the plate using a luminometer. […]

Assay [3] deals with T3, Recombinant Human 5'-Nucleotidase/CD73 (Homo sapiens, UniProt P21589).
T3 construct: purchased R&D Systems
T3 sequence (P21589 27-574): T2 sequence (P21589 27-574)
Details: method as in PMID 18302942, PMID 24144488. The following applies: reported by others; ref [25], [26]; cited from earlier work.

Entries after “also recorded” stand apart in the source; their conditions may differ.

As for `Nc1ncnc2c1ncn2[C@@H]1O[C@H](COP(=O)(O)CP(=O)(O)O)[C@@H](O)[C@H]1O` [AMP-CP, Adenosine 5'-(α, β-methylene) diphosphate], the “inhibition of cN-II” value in assay [1] is “minimal or no inhibition; also recorded: no inhibition”. Besides, in assay [2] (50μM inhibitor, 25k MDA-MB-231 cells per well, 10μM AMP, 37°C, time course), the “inhibition of membrane-associated CD73 activity” value is recorded as “inhibited”. The half-maximal inhibitory concentration (IC50) is 2100 nM in assay [2] (25K cells per well, 5μM AMP, 90min at 37°C) and 236 nM in assay [3].
